Assay results from US8088791B2, “Antibacterial agents” (Biots Scientific Management Pty Ltd, priority 2006, dated 2012).
In brackets after ≈: the same amount, converted by molar mass.

What was measured:
[1] = tested on: Staphylococcus aureus ATCC29213; test: Minimum Inhibitory Concentration (MIC) testing, broth microdilution, Staphylococcus aureus; type: cell-based; conditions: Staphylococcus aureus ATCC29213; read-out: Staphylococcus aureus MICs Activity
Method: (§1) Compounds of this invention were tested for antimicrobial activity by susceptibility testing in liquid media. MICs for compounds against each strain were determined by a broth microdilution method according to the National Committee for Clinical Laboratory Standards (NCCLS) guidelines. (NCCLS. 2000. Methods for dilution antimicrobial susceptibility tests for bacteria that grow aerobically—fifth edition. Approved standard M7-A5. NCCLS, Wayne, Pa.)
(§2) Briefly, test compounds are prepared in 100 μl of 1.6% DMSO solution in multiwell plates. Several bacterial colonies from a freshly streaked plate are transferred to an appropriate rich broth, such as Mueller Hinton. The cell suspension is adjusted to an optical density of 0.09 and further diluted 1:100 with warm 2× broth. This cell suspension is dispensed into the wells containing compound solution so that the final volume is 200 μl. The plates are incubated overnight (16-20 hours) at 37° C. and turbidity is scored by eye and quantified spectrophotometrically. The MIC is defined as the lowest concentration inhibiting visible growth.
Some of the compounds of the Examples were also tested for activity against the pathogenic organism Staphylococcus aureus ATCC29213. […] Activities were again scored as ‘A’ if the MIC was ≦8 micrograms/ml, ‘B’ if the MIC was 16 to 64 micrograms/ml and ‘C’ if the MIC was greater than 64 micrograms/ml.

[2] = tested on: Bacillus subtilis 168CA; test: Minimum Inhibitory Concentration (MIC) testing, broth microdilution, Bacillus subtilis; type: cell-based; conditions: Bacillus subtilis 168CA; read-out: Bacillus subtilis MICs Activity
Method: as §1, §2
Activities were scored as ‘A’ if the MIC was ≦8 micrograms/ml, ‘B’ if the MIC was 16 to 64 micrograms/ml and ‘C’ if the MIC was greater than 64 micrograms/ml.

MIC [1] [µg/mL]	MIC [2] [µg/mL]	SMILES
< 8	16 to 64 (≈ 64.7 to 259 µM)	C=CCCCCCCOc1cccc(C(N)=O)c1 [Example 12, 3-(7-Octenyloxy)benzenecarboxamide]
16 to 64 (≈ 73 to 292 µM)	16 to 64 (≈ 73 to 292 µM)	C=CCCCCOc1cccc(C(N)=O)c1 [Example 15, 3-(5-Hexenyloxy)benzenecarboxamide]
16 to 64 (≈ 68.6 to 274 µM)	16 to 64 (≈ 68.6 to 274 µM)	C=CCCCCCOc1cccc(C(N)=O)c1 [Example 17, 3-(6-Heptenyloxy)benzenecarboxamide]
> 64	> 64	CC(=O)OCCCCCOc1cccc(C(N)=O)c1 [Example 18, 5-[3-(Aminocarbonyl)phenoxy]pentyl acetate]
< 8	< 8	CCCCCCCCOc1cccc(C(N)=O)c1 [Example 19, 3-(Octyloxy)benzenecarboxamide]
< 8	< 8	CCCCCCCOc1cccc(C(N)=O)c1 [Example 24, 3-(Heptyloxy)benzenecarboxamide]
> 64	> 64	COC(=O)CCCOc1cccc(C(N)=O)c1 [Example 26, Methyl 4-[3-(aminocarbonyl)phenoxy]butanoate]
> 64	> 64	NC(=O)c1cccc(OCC(=O)OC2CCCCC2)c1 [Example 27, Cyclohexyl 2-[3-(aminocarbonyl)phenoxy]acetate]
> 64	< 8	NC(=O)c1cccc(OCCC2CCCCCC2)c1 [Example 28, 3-(2-Cycloheptylethoxy)benzenecarboxamide]
16 to 64 (≈ 66.3 to 265 µM)	16 to 64 (≈ 66.3 to 265 µM)	Cc1cccc(COc2cccc(C(N)=O)c2)c1 [Example 29, 3-[(3-Methylbenzyl)oxy]benzenecarboxamide]
> 64	> 64	C/C=C/COc1cccc(C(N)=O)c1 [Example 30, 3-[2-Butenyloxy]benzenecarboxamide]
16 to 64 (≈ 65.2 to 261 µM)	16 to 64 (≈ 65.2 to 261 µM)	CCCCCC#CCOc1cccc(C(N)=O)c1 [Example 31, 3-(2-Octynyloxy)benzenecarboxamide]
16 to 64 (≈ 61.7 to 247 µM)	< 8	CCCCC#CCCCOc1cccc(C(N)=O)c1 [Example 32, 3-(4-Nonynyloxy)benzenecarboxamide]
> 64	< 8	NC(=O)c1cccc(OCCCCCCc2ccccc2)c1 [Example 36, 3-[(6-Phenylhexyl)oxy]benzenecarboxamide]
16 to 64 (≈ 72.3 to 289 µM)	16 to 64 (≈ 72.3 to 289 µM)	CCCC(C)COc1cccc(C(N)=O)c1 (stereo not shown) [Example 39, 3-[(2-Methylpentyl)oxy]benzenecarboxamide]
< 8	< 8	CCCC/C=C/CCOc1cccc(C(N)=O)c1 [Example 40, 3-[(E)-3-Octenyloxy]benzenecarboxamide]
16 to 64 (≈ 63.7 to 255 µM)	16 to 64 (≈ 63.7 to 255 µM)	CCCCOC(=O)COc1cccc(C(N)=O)c1 [Example 41, Butyl 2-[3-(aminocarbonyl)phenoxy]acetate]
16 to 64 (≈ 61.2 to 245 µM)	< 8	CCCCCC/C=C\COc1cccc(C(N)=O)c1 [Example 47, 3-[(Z)-2-Nonenyloxy]benzenecarboxamide]
< 8	< 8	CCCCCC/C=C/COc1cccc(C(N)=O)c1 [Example 49, 3-[(E)-2-Nonenyloxy]benzenecarboxamide]
16 to 64 (≈ 61.7 to 247 µM)	< 8	CCCCCC#CCCOc1cccc(C(N)=O)c1 [Example 51, 3-(3-Nonynyloxy)benzenecarboxamide]
< 8	< 8	CC/C=C\CCCCOc1cccc(C(N)=O)c1 [Example 52, 3-[(Z)-5-Octenyloxy]benzenecarboxamide]
> 64	> 64	CCCCCOCCOc1cccc(C(N)=O)c1 [Example 53, 3-[2-(Pentyloxy)ethoxy]benzenecarboxamide]
16 to 64 (≈ 60.3 to 241 µM)	16 to 64 (≈ 60.3 to 241 µM)	CCCCCCOCCOc1cccc(C(N)=O)c1 [Example 54, 3-[2-(Hexyloxy)ethoxy]benzenecarboxamide]
< 8	< 8	CC(C)=CCC/C(C)=C/CCC(C)COc1cccc(C(N)=O)c1 (stereo not shown) [Example 55, 3-{[(5E)-2,6,10-Trimethyl-5,9-undecadienyl]oxy}benzenecarboxamide]

MIC [1] [µg/mL]	MIC [2] [µg/mL]	SMILES
< 8	< 8	CC/C=C\CC/C=C/COc1cccc(C(N)=O)c1 [Example 56, 3-[(2E,6Z)-2,6-Nonadienyloxy]benzenecarboxamide]
16 to 64 (≈ 43.2 to 173 µM)	< 8	CC(C)(C)c1nc(CCCOc2cccc(C(N)=O)c2)c(C(F)(F)F)o1 [Example 57, 3-{3-[2-(tert-Butyl)-5-(trifluoromethyl)-1,3-oxazol-4-yl]propoxy}benzenecarboxamide]
< 8	< 8	CCCC/C=C/CCCCOc1cccc(C(N)=O)c1 [Example 58, 3-[(E)-5-Decenyloxy]benzenecarboxamide]
16 to 64 (≈ 65.2 to 261 µM)	< 8	CCCCC#CCCOc1cccc(C(N)=O)c1 [Example 59, 3-(3-Octynyloxy)benzenecarboxamide]
16 to 64 (≈ 72.3 to 289 µM)	16 to 64 (≈ 72.3 to 289 µM)	CCC(C)CCOc1cccc(C(N)=O)c1 (stereo not shown) [Example 60, 3-[(3-Methylpentyl)oxy]benzenecarboxamide]
< 8	< 8	CC/C=C\CCCCCOc1cccc(C(N)=O)c1 [Example 61, 3-[(Z)-6-Nonenyloxy]benzenecarboxamide]
< 8	< 8	CCCCCCCCCOc1ccc(Cl)c(C(N)=O)c1 [Example 68, 2-Chloro-5-(nonyloxy)benzenecarboxamide]
< 8	< 8	C#CCCCCCCCCCOc1ccc(Cl)c(C(N)=O)c1 [Example 69, 2-Chloro-5-(10-undecynyloxy)benzenecarboxamide]
< 8	< 8	CCCCCCCCCOc1ccc(F)c(C(N)=O)c1 [Example 70, 2-Fluoro-5-(nonyloxy)benzenecarboxamide]
< 8	< 8	CCCCCCCCCCOc1ccc(F)c(C(N)=O)c1 [Example 71, 2-Fluoro-5-(decyloxy)benzenecarboxamide]
16 to 64 (≈ 51.7 to 207 µM)	16 to 64 (≈ 51.7 to 207 µM)	CCCCCCCCCCCOc1ccc(F)c(C(N)=O)c1 [Example 72, 2-Fluoro-5-(undecyloxy)benzenecarboxamide]
< 8	< 8	CC/C=C\CCCCOc1ccc(F)c(C(N)=O)c1 [Example 73, 2-Fluoro-5-[(Z)-5-octenyloxy]benzenecarboxamide]
< 8	< 8	CCCCCC/C=C/COc1ccc(F)c(C(N)=O)c1 [Example 74, 2-Fluoro-5-[(E)-2-nonenyloxy]benzenecarboxamide]
< 8	< 8	C#CCCCCCCCCCOc1ccc(F)c(C(N)=O)c1 [Example 75, 2-Fluoro-5-(10-undecynyloxy)benzenecarboxamide]
16 to 64 (≈ 62.2 to 249 µM)	16 to 64 (≈ 62.2 to 249 µM)	CCCCCCOc1c(F)ccc(C(N)=O)c1F [Example 80, 2,4-Difluoro-3-(hexyloxy)benzenecarboxamide]
< 8	< 8	CCCCCCOc1ccc(F)c(C(N)=O)c1F [Example 81, 2,6-Difluoro-3-(hexyloxy)benzenecarboxamide]
< 8	< 8	CCCCCCCCCOc1ccc(F)c(C(N)=O)c1F [Example 82, 2,6-Difluoro-3-(nonyloxy)benzenecarboxamide]
16 to 64 (≈ 55.7 to 223 µM)	< 8	CCCCOC(=O)COc1ccc(F)c(C(N)=O)c1F [Example 83, Butyl 2-[3-(aminocarbonyl)-2,4-difluorophenoxy]acetate]
< 8	< 8	CCCCCCOCCOc1ccc(F)c(C(N)=O)c1F [Example 85, 2,6-Difluoro-3-[2-(hexyloxy)ethoxy]benzenecarboxamide]
< 8	< 8	CC/C=C\CCCCCOc1ccc(F)c(C(N)=O)c1F [Example 86, 2,6-Difluoro-3-[(Z)-6-nonenyloxy]benzenecarboxamide]
< 8	< 8	COc1ccc2ccc(COc3ccc(F)c(C(N)=O)c3F)nc2c1 [Example 98, 2,6-Difluoro-3-(7-methoxy-quinolin-2-ylmethoxy)-benzamide]
< 8	< 8	NC(=O)c1c(F)ccc(OCc2nc(-c3ccccc3Cl)cs2)c1F [Example 99, 3-[4-(2-Chloro-phenyl)-thiazol-2-ylmethoxy]-2,6-difluoro-benzamide]
< 8	< 8	COc1ccc(Br)c(-c2csc(COc3ccc(F)c(C(N)=O)c3F)n2)c1 [Example 100, 3-[4-(2-Bromo-5-methoxy-phenyl)-thiazol-2-ylmethoxy]-2,6-difluoro-benzamide]
16 to 64 (≈ 56.9 to 228 µM)	16 to 64 (≈ 56.9 to 228 µM)	NC(=O)c1c(F)ccc(OCc2cccc(F)c2)c1F [Example 101, 2,6-Difluoro-3-(3-fluoro-benzyloxy)-benzamide]

SMILES	MIC [1] [µg/mL]	MIC [2] [µg/mL]
NC(=O)c1cccc(OCCCCO)c1 [Example 42, 3-(4-Hydroxybutoxy)benzenecarboxamide]	16 to 64 (≈ 76.5 to 306 µM)	16 to 64 (≈ 76.5 to 306 µM)
CCC1CC1CCCCOc1cccc(C(N)=O)c1 (stereo not shown) [Example 91, 3-[4-(2-Ethylcyclopropyl)butoxy]benzenecarboxamide]	< 8	< 8
